Source: paper PMC5877348, “Presence of a Haloarchaeal Halorhodopsin-Like Cl^− Pump in Marine Bacteria” (Microbes and Environments, 2018)

Assays:
[1] = molecular target: T1, RmHR (Rubricoccus marinus halorhodopsin) (Rubricoccus marinus, UniProt A0A259U296); assay: normal-phase HPLC of extracted retinal oxime; format: binding; design: gene BSZ36_14690; full-length codon-optimised synthetic gene in pET21a, C-terminal His6; expressed in E. coli, DDM-solubilised, purified; conditions: covalent (Schiff base); 1 M NaCl, 25°C, dark or illuminated at 540 nm; retinal supplied during expression
T1 sequence (A0A259U296 entry or part of it): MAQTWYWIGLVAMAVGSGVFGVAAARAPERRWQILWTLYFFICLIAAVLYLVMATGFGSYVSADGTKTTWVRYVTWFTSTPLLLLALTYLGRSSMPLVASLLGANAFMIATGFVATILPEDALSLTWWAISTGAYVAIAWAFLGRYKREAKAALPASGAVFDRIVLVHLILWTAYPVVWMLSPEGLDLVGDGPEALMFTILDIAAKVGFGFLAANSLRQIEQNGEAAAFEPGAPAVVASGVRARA

[2] = molecular target: T1, RmHR (Rubricoccus marinus halorhodopsin); assay: biochemical; design: gene BSZ36_14690

| Compound | normal-phase HPLC of extracted retinal oxime [1] | Kd [2] |
| --- | --- | --- |
| CC1=C(/C=C/C(C)=C/C=C/C(C)=C/C=O)C(C)(C)CCC1 [all-trans-retinal] | RmHR predominantly possesses all-trans retinal as a chromophore | – |
| Cl [Cl^−] | – | 7.6 ± 1.7 mM |
